Test results from paper PMC7567334 (Environmental Health Perspectives, 2020).
Entries after “also recorded” stand apart in the source; their conditions may differ.

Legend:
firefly luciferase = biological target: T1, firefly luciferase (Photinus pyralis, UniProt P08659); assay: Luciferase inhibition assay in GH3.TRE-Luc cell lysates; format: biochemical; conditions: cell lysate, read-out: inhibition of firefly luciferase luminescence signal
T1 construct: Only implied by 'CP' in the vector name, from my own knowledge; expressed in transfected cells; host or cells: GH3.TRE-Luc cells induced with 0.25 nM T3, lysate
T1 sequence (P08659 whole entry): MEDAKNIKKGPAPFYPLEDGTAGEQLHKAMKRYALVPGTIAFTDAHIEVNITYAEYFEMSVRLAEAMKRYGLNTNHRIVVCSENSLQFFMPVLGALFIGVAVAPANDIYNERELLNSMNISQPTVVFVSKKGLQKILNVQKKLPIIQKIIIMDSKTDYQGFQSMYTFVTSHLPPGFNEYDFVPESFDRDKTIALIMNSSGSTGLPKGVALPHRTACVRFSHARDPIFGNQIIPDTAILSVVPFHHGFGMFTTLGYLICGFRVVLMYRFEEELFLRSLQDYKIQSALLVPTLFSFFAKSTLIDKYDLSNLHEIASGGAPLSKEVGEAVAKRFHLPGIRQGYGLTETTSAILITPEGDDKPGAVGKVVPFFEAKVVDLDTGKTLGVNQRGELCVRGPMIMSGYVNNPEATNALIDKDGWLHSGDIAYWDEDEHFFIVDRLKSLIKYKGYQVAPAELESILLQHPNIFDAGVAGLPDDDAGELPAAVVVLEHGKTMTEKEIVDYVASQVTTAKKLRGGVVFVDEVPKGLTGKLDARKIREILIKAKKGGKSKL
Experimental: Serial dilutions for each treatment were prepared in the cell lysate and incubated at room temperature for 30 min.

Glucocorticoid receptor = conditions: ref Kolšek et al. 2014a, cited from earlier work
human (h) ERα [1] = biological target: T2, human (h) ERα (Homo sapiens, UniProt P03372); assay: hERα-HeLa-9903 transactivation assay, agonist setup; format: cell-based; design: host or cells: hERα-HeLa-9903 (HeLa derived); conditions: for higher ERα RTA than vehicle control: vs 0.1% DMSO
T2 sequence (P03372 1-595): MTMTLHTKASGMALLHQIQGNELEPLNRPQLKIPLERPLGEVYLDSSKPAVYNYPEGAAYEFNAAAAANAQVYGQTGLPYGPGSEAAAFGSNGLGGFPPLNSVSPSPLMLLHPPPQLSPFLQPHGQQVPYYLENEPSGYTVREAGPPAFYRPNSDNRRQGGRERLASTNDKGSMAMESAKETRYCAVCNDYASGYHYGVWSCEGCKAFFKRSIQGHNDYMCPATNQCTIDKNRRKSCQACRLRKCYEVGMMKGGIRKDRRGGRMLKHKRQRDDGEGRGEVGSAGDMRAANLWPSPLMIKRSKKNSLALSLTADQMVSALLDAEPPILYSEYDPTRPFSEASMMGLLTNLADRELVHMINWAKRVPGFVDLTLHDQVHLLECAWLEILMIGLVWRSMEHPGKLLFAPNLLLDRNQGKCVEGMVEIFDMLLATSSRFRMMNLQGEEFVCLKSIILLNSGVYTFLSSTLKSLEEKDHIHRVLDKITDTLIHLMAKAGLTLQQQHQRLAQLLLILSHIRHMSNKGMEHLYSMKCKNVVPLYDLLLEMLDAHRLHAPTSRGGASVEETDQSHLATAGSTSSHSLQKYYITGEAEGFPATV

GR = biological target: T3, GR (Homo sapiens, UniProt P04150); assay: MDA-kb2 GR reporter assay, agonist setup (with FLU); format: cell-based; design: constitutively expressed high levels of functional GR and AR; host or cells: MDA-kb2; conditions: MDA-kb2
T3 sequence (P04150 1-777): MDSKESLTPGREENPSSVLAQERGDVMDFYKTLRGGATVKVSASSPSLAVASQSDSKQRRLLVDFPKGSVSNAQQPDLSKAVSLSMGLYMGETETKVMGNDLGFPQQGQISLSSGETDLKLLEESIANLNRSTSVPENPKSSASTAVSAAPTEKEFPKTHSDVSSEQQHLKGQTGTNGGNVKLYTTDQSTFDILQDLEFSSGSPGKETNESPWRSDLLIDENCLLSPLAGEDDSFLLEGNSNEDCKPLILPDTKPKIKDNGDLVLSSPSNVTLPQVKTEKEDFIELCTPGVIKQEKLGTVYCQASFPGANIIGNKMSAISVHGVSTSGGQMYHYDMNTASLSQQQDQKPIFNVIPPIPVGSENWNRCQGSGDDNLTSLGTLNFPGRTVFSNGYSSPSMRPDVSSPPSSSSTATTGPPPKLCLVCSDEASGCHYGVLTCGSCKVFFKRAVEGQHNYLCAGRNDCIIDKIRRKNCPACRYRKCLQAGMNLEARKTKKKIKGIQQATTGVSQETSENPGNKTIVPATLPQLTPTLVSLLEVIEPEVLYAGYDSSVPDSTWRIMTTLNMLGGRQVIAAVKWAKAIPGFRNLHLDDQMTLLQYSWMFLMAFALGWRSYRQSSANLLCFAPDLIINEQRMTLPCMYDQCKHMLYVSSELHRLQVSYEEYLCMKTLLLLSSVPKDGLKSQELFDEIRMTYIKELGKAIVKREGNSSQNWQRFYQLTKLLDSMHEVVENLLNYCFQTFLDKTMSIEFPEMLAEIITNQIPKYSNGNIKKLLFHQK

AR = biological target: T4, AR (Rattus norvegicus, UniProt P15207); assay: PolarScreen AR Competitor binding affinity assay; conditions: in words; tested up to 10 μM
T4 construct: purchased Invitrogen
T4 sequence (P15207 651-902 limits assumed): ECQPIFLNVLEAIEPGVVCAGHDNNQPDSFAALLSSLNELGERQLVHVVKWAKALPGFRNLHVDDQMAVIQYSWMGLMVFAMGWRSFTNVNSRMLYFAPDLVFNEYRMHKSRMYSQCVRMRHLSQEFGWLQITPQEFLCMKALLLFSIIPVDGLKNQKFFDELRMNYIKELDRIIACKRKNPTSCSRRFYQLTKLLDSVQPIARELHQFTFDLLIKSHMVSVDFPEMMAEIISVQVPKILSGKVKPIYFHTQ

recombinant AR = conditions: ref Chen et al. 2008; cited from earlier work
[2] = test system: fathead minnow (Pimephales promelas); conditions: exposure to 10 μg/L; ref Ankley et al. 2010; cited from earlier work
Estrogen receptor-α = conditions: cited from earlier work
human (h) ERα [3] = biological target: T2, human (h) ERα; conditions: test for false positivity
hERα-HeLa-9903 cells = assay: Cell viability (resazurin) in hERα-HeLa-9903 cells
[4] = BG1-ERE cells, ref Ahn et al. 2008

O=C(Nc1ccc(Cl)cc1)Nc1ccc(Cl)c(Cl)c1 [Triclocarban, 1-(4-Chlorophenyl)-3-(3,4-dichlorophenyl) urea]
inhibition at 50 µM (firefly luciferase): 46.7% | effect on GR with HC (Glucocorticoid receptor; MDA-kb2 cells): Enhancer of HC activity in MDA-kb2 cells ([Kolšek et al. 2014a]) | concentration with enhanced HC activity on GR (Glucocorticoid receptor): 2 µM | higher ERα RTA than vehicle control (human (h) ERα [1]; 1 μM): 53% | higher ERα RTA than vehicle control (human (h) ERα [1]; 5 μM): 58% | ERα agonist activity, call (human (h) ERα [1]; hERα-HeLa-9903): Agonist | concentration with ERα agonist activity (human (h) ERα [1]; hERα-HeLa-9903): 1 to 5 µM | GR agonist activity (GR): no GR agonist activity | binding affinity assay on isolated AR, result (AR): did not show binding; also recorded: No binding; also recorded: negative | binding to recombinant AR (recombinant AR): Negative for recombinant AR ([Chen et al. 2008]) | effect in fathead minnow [2]: increased masculinization | effect on ER with β-estradiol (Estrogen receptor-α; [4]): Enhancer of β-estradiol activity in BG1-ERE cells ([Ahn et al. 2008]) | effect on ER, compound alone (Estrogen receptor-α; [4]): Agonist in BG1-ERE cells ([Ahn et al. 2008]) | effect on ERα (Estrogen receptor-α; hERα-HeLa-9903 cells, ref Tarnow et al. 2013): Enhancer of β-estradiol activity in hERα-HeLa-9903 cells ([Tarnow et al. 2013]) | estrogenic effect in presence of ER antagonist 10 μM hydroxytamoxifen (human (h) ERα [3]): blocked all | highest noncytotoxic concentration (hERα-HeLa-9903 cells; hERα-HeLa-9903): 5 µM | highest tested concentration as limited by precipitation and cytotoxicity (hERα-HeLa-9903 cells; hERα-HeLa-9903, ERα agonist dose-response): 5 µM
